Paper PMC8878317, “Chemogenomics identifies acetyl-coenzyme A synthetase as a target for malaria treatment and prevention” (Cell Chemical Biology, 2022)
Where two headings read alike, the source gives them in different places.

System: P. falciparum NF54-PfAcAS-cKD
Assay: cKD compound susceptibility assay (luminescence, 72 hr), PfAcAS cKD line
Assay type: cell-based
Conditions: Plasmodium falciparum
Source text: We used CRISPR-Cas9 to modify the native PfAcAS locus and install the linear pSN054 donor vector ([Nasamu et al., 2020]) that incorporates a C-terminal V5 and 2xHA-tags, a 10x aptamer array, and the TetR-DOZI expression cassette containing the blasticidin S deaminase gene, the reporter gene Renilla luciferase (RLuc), and the fusion proteins TetR-DOZI ([Ganesan et al., 2016]). The right homology region (RHR) was PCR amplified and inserted into pSN054 using the I-SceI restriction site. Fragments corresponding to the left homology region (LHR) fused to the re-codonized 3′-end of the gene (bp 2710–2991) as well as the target-specifying guide RNA sequence were synthesized using the BioXP 3200 System (SGI-DNA) and cloned into pSN054 using restriction sites FseI/AsisI and AflII, respectively. Donor vector generation was carried out via Gibson assembly, and the final construct was confirmed by restriction digests and Sanger sequencing. Primers used in this study are listed in the key resources table.
Transfection into Cas9-and T7 RNA polymerase-expressing NF54 parasites was carried out by preloading erythrocytes with the AcAS_pSN054 plasmid as described previously ([Deitsch et al., 2001]). Briefly, 50–100 μg of purified plasmid DNA were mixed with human red blood cells in 0.2 cm cuvettes and subjected to 8 square wave electroporation pulses of 365 V for 1 ms each, separated by 0.1 s. The DNA preloaded red blood cells were inoculated with schizont-stage parasites (e.g. NF54attB, NF54:pCRISPR) to achieve starting parasitemias ≤1% in RPMI 1640 Complete media. Cultures were maintained in 500 nM anhydrotetracycline (aTc; Sigma-Aldrich 37,919) and 2.5 μg/mL Blasticidin S (RPI Corp B12150–0.1). Emergence of transfectants was monitored via Giemsa smears and RLuc measurements. Clonal parasites were obtained by limiting dilution ([Rosario, 1981]).
Synchronous ring-stage, aptamer-regulated PfAcAS and control parasite lines were resuspended in varying aTc concentrations (high = 50 nM, low = 1 nM, and no aTc) and distributed into the drug plate. DMSO carrier and chloroquine (200 nM) wells served as positive and negative controls.

[1] = NF54, read-out: PfAcAS cKD EC50 ± SD (nM) (1nM aTc)
[2] = NF54, read-out: PfAcAS cKD EC50 ± SD (nM) (50nM aTc)

## CCN(CC)S(=O)(=O)c1ccc(Cl)c(C(=O)Nc2ccc3nc(C)sc3c2)c1 [MMV019721]
[1]
  EC50: 7 ± 1.2 nM
[2]
  EC50: 43 ± 8.5 nM

## O=C(NNC(=O)c1csnn1)c1ccc(Cl)cc1 [MMV084978]
[1]
  EC50: 45 ± 4.4 nM
[2]
  EC50: 240 ± 64 nM
